Results reported in patent publication US7189701B1, “Tetrapeptide stimulating functional activity of neurons pharmacological agent based thereon and method of use thereof” (Sankt-Petersburgskaya Obschestvennaya Organizatsiya …, priority 1999, dated 2007).
Residues, ends and D or L forms follow the SMILES beside them.

How the values were obtained:
[1] = tested on: patients with vascular dementia; assay: Preliminary clinical trial in patients with vascular dementia; assay type: in vivo, human; settings: 3 μg intramuscularly once daily for 30 days
Experimental: Twelve patients aged 69 to 76 years (7 males and 5 females) suffering from hypertensive disease and atherosclerosis of cerebral vessels for a long time were enrolled in the study. Three of them had apoplexy in their medical histories. Initial data obtained in the similar patients before the treatment was used as control. L-Ala-L-Glu-L-Asp-L-Pro tetrapeptide was intramuscularly injected in a single dose of 3 μg once daily for 30 days.
Results were assessed after the treatment in comparison with the data obtained before the treatment. Basing on the examination results, changes in the patients' state were defined according to the following gradation: improvement (substantial, average or minor), deterioration, no changes.
At the pretreatment examination signs of intellectual-mnemic defect were found in all the patients: memory impairment, intellectual deterioration, aphasia, apraxia and agraphia disorders. In 9 patients signs of disorientation in time and place were found. The patients' emotional state was labile, manifested with periodical alternation of apathy and euphoria, complacency and anger aptness.

white unbred rats = assay: Subacute toxicity, 90 days intramuscular; assay type: in vivo; settings: intramuscular daily for 90 days, 1 μg/kg, 0.3 mg/kg, 3 mg/kg
Experimental: Subacute toxicity of L-Ala-L-Glu-L-Asp-L-Pro (SEQ ID NO:1) tetrapeptide was studied on 60 white unbred rats weighing 150 to 250 g. The experimental animals were administered the preparation intramuscularly once a day, daily for 90 days in doses 1 μg/kg, 0.3 mg/kg, 3 mg/kg in 0.5 ml of saline. The control animals were administered the similar amount of saline.
Within the entire period of study the animals were under daily supervision. Animals' behaviour, food and water consumption, the state of their hair integument and mucous membranes were registered. The animals were weighed once a week. Prior to and on the 30th, 60th and 90th days of the drug administration, the morphologic composition and properties of the peripheral blood in the animals were examined. Upon the study completion, biochemical and coagulologic blood indices were explored.

cerebral cortex of rats = assay: Intensity of lipid peroxide oxidation reactions and protein peroxidation in the cerebral cortex; assay type: in vivo; settings: 1 μg intraperitoneally daily for 5 days
Experimental: The intensity of lipid peroxide oxidation (LPO) was assessed by the content of initial LPO products—diene conjugates and end products—Schiff bases. The degree of protein peroxidation was estimated by the content of carbonyl-derived amino acids in proteins after their interaction with 2,4-dinitrophenylhydrazine.
The study was conducted on 20 white unbred rats. 1 μg of the tetrapeptide was administered to the animals intraperitoneally daily for 5 days.
Moreover, the tetrapeptide application inhibited protein peroxidation as well as LPO (Table 1).

[2] = tested on: mice subject to ethanol-induced amnestic impact; assay: CRPA in mice subject to ethanol-induced amnestic impact; assay type: in vivo
Experimental: (§1) Nootropic activity of L-Ala-L-Glu-L-Asp-L-Pro tetrapeptide was studied with the application of the conditioned reflex of passive avoidance (CRPA) in the intact animals and under the conditions of amnestic impacts (electroconvulsive treatment and ethanol intoxication).
(§2) The experiments were carried out on male mice weighing 20 to 24 g. For each animal the period of stay in dark and lighted chamber departments was registered during 2 min. before the training. […] The animals were trained by means of applying an electric pain stimulus in the preferred dark department, which lasted until the animal left this department. L-Ala-L-Glu-L-Asp-L-Pro tetrapeptide was introduced intraperitoneally 60 min. before the training. Testing was performed in 2 and 24 hours after the training. The period the animal stayed in the dark and lighted chamber departments and the number of animals not entering the dark department (“educated” animals) were recorded.
Ethanol was administered to the mice orally for 13 days in the form of a 10% solution. Training was held twice: on the 14th day of ethanol administration and in 24 hours after the first training. L-Ala-L-Glu-L-Asp-L-Pro tetrapeptide was administered intraperitoneally 30 min. before the training. Testing was performed in 2 and 24 hours after the first and second training sessions.

[3] = tested on: mice with compressed fibular nerve; assay: Regeneration of the compressed peripheral (fibular) nerve, electrophysiological tests; assay type: in vivo; settings: 10 μg/kg i.p. daily for 8 days
Experimental: The study was accomplished on 22 white unbred male mice weighing 25 to 30 g (7 experimental and 15 control animals).
At the 1st stage of the study, the mice were chronically operated on to compress the fibular nerve. The fibular nerve (n. peroneus communus) in the Nembutal-narcotised mice (60 mg/kg, intraperitoneally) was compressed at a distance of 8 to 9 mm from the innervated muscle—long digital extensor (m. extensor digitorum longus—EDL). The animals were operated on the left hind leg, whilst the corresponding nerve and muscle of the right leg were intact and used further as an intact control.
Afterwards, since the 3rd day after the nerve compression, the mice were intraperitoneally injected with L-Ala-L-Glu-L-Asp-L-Pro tetrapeptide in dose 10 μg/kg, daily for 8 days. The control mice were treated with an equivalent amount of saline.
On the 11th day after the nerve compression surgery (and within 24 hours after the last tetrapeptide injection), the Nembutal-narcotised mice (60 mg/kg) were subject in vivo to electrophysiological tests for different functional parameters of the already germinated nerve and reinnervated skeletal muscular fibres (EDL).

intact white mice = assay: Conditioned reflex of passive avoidance (CRPA) in intact mice; assay type: in vivo; settings: for Trained animals (%): i.p. 60 min. before the training
Experimental: as §1, §2

[4] = 1: in 2 hours after the training
[5] = 2: in 24 hours after the training
[6] = 3: in 2 hours after the repeated training
[7] = 4: in 24 hours after the repeated training

C[C@H](N)C(=O)N[C@@H](CCC(=O)O)C(=O)N[C@@H](CC(=O)O)C(=O)N1CCC[C@H]1C(=O)O [L-Ala-L-Glu-L-Asp-L-Pro tetrapeptide, L-Alanyl-L-Glutamyl-L-Aspartyl-L-Proline] (H-AEDP-OH)
patients showing reverse development of the pathologic symptoms [1]: 74.8%
side effects, subacute toxicity (white unbred rats): absence of any side effects
Degree of protein peroxidation (cerebral cortex of rats): 4.81 ± 0.09 μmole/mg of protein
Diene conjugates (cerebral cortex of rats): 29.67 ± 1.93 nmole/g of the tissue
Schiff bases (cerebral cortex of rats): 245.2 ± 23.9 IU/g of the tissue
Total period of stay in the dark chamber [2, 4]: 47.8 ± 5.7 s
Trained animals (%) [2, 4]: 13%
Total period of stay in the dark chamber [2, 5]: 41.6 ± 5.8 s
Trained animals (%) [2, 5]: 31%
Total period of stay in the dark chamber [2, 6]: 13.7 ± 5.7 s
Trained animals (%) [2, 6]: 77%
Total period of stay in the dark chamber [2, 7]: 7.6 ± 5.7 s
Trained animals (%) [2, 7]: 86%
improvement of the electric threshold of the regenerating nerve ([3]; 11th day after nerve compression): 30–50%
acetyl choline muscular contraction rate ([3]; FIG. 3): tendency to diminish
shortening of the latent M-response period ([3]; intact neuromuscular system): 89%
shortening of the latent M-response period ([3]; regenerating nerve (and the muscle)): 59%
Total period of stay in the dark chamber during 2 min. (intact white mice; 2 hours after training): 11.4 ± 5.2 s
Trained animals (%) (intact white mice; 2 hours after training): 86%
Total period of stay in the dark chamber during 2 min. (intact white mice; 24 hours after training): 26.6 ± 5.9 s
Trained animals (%) (intact white mice; 24 hours after training): 68%
